Bridge positions count the residues as written; N and C are the ends. Peptide text beside a SMILES is read from it.
What was measured:
[1] = test system: activated human primary PBMC; test: Anti-proliferative CFSE cell division assay on anti-CD3/CD28-activated PBMC; settings: CFSE, flow cytometry; extract 50-100 μg/mL, cyclotides 1.8-14 μM, melittin 0.05-1.6 μM
Method in brief: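 Healthy-donor PBMC were CFSE-labelled (5 μM, 10 min, 37° C.), activated with anti-CD3/CD28 and cultured in RPMI 1640 with 10% FCS at 37° C. with the cyclotide mutants/variants. Proliferation was read as cell division by flow-cytometric CFSE histogram analysis.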

[2] = test system: IL-2 mRNA in PHA-L-activated cells; test: IL-2 gene expression, real-time PCR; type: cell-based, human; settings: 4 hours, vs control
Experimental: C. IL-2 gene expression analysis using RT-PCR. […] RT-PCR was carried out using specific primers for indicated gene. The data were normalized to the Ct value of the internal housekeeping gene 18s rRNA and the relative mRNA level in the untreated stimulated group was used as calibrator. Data were expressed as mean+SD of three independent experiments.
Total RNA was extracted from controls or treated cells (2×10^6) frozen at −80° C. RNA-purification was performed according to the manufacturer's instructions for the RNeasy mini and Rnase-Free Dnase Set digestion kits (Qiagen, Hilden, Germany). The quantity and purity of extracted RNA was measured by spectrophotometry (Nanodrop, Peqlab, Erlangen, Germany) and purified RNA was reverse transcribed using the RT^2 First Stand Kit (Qiagen, Hilden, Germany).
RT-PCR reactions were carried out on a BioRad MyiQ (BioRad, Munich, Germany) in a final volume of 25 μL using RT^2 qPCR Primer Assay (for IL-2) and SYBR® Green qPCR Mastermix (both from Qiagen, Hilden, Germany). […] Results were expressed as relative gene expression of IL-2 and were determined by comparative Ct method. […]
To determine whether cyclotides have an impact at the gene expression level of the, il-2 gene expression (as control we used 18s rRNA) in PBMC cells was investigated by quantitative real-time PCR (FIG. 12C).

[3] = test system: EAE-induced C57BL/6J mice; test: EAE in C57BL/6J mice treated with T20K, clinical score; type: in vivo, mouse
Experimental: FIG. 19. Effect on clinical EAE score. After induction of EAE, mice treated with T20K and naïve mice were scored every second day, starting at day 10.
Mice (n=10/group) were treated on day (−7), 0, 7 with 200 μg/100 μL/mouse T20K solubilized in sterile PBS intraperitoneally (i.p.), as indicated in the figure. On day 0 they were immunized subcutaneously with myelin oligodendrocyte glycoprotein (MOG35-55, 1 mg/mL) and complete Freud's adjuvant (CFA, 10 mg/mL) mixed at equal parts. Therefore 70 μL were injected into the left and right flank. Additionally mice received 100 μL pertussis toxin (2 μg/mL) i.p. on day 0 and again on day 2. Beginning at day 10 mice were scored every second day. Weight was also measured at day (−7), 0, 7 and on the same day during scoring.

NFATc1 in human T-cells = test: Western blot for NFATc1; type: cell-based; settings: CsA 5 μg/mL, T20K 4 μM; compared to V10K, PHA-L, PMA/Ionomycin
Experimental: (§1) FIG. 23. Effect of cyclotides on protein expression of NFAT1c. […] But instead of stimulating with PHA-L and PMA/ionomycin, one part of the cells was stimulated with PHA-L (10 μg/mL) and the other with PMA (50 ng/mL)/ionomycin (500 ng/mL) over night. […] Splenic T-cells isolated from naïve mouse group were stimulated as described above.
(§2) Human T-cells provided by CCRI from A. Dohnal, PhD were stimulated according to the protocol for IL2 release described above. Stimulated cells were resuspended in TBS and mixed at equal parts with sample buffer and heated for five minutes at 95° C. A sodium dodecyl sulfate polyacrylamide gel was prepared to separate the proteins achieved from the lysed T-cells. After electrophoresis proteins were transferred from the gel to a membrane. After blocking the membrane with BSA 3% in TBST over night at 4° C., the first antibody mouse anti-NFATc1 was incubated for 2 hours at room temperature. After five times washing with TBST 0.1% Tween, the membrane was incubated with the second antibody anit-mouse IgG HRP for one hour at room temperature. The membrane was dried and treated with West Pico or West Femto Super Signal Solution according to the manufactures protocol to evaluate the chemo-luminescence signal.

[4] = test system: NFATc1 in splenic T-cells of naive mouse group; test: Western blot for NFATc1; type: cell-based; settings: compared to V10K and MOG
Experimental: as §1, §2

SMILES: CC(C)C[C@@H]1NC(=O)CNC(=O)[C@H](CC(N)=O)NC(=O)[C@H](CCCNC(=N)N)NC(=O)[C@H]([C@@H](C)O)NC(=O)[C@@H]2CSSC[C@@H]3NC(=O)[C@H]([C@@H](C)O)NC(=O)CNC(=O)CNC(=O)[C@H](C(C)C)NC(=O)[C@@H]4CSSC[C@H](NC(=O)[C@H](CCCCN)NC(=O)[C@H](CSSC[C@H](NC(=O)[C@H](C(C)C)NC(=O)[C@@H]5CCCN5C1=O)C(=O)NCC(=O)N[C@@H](CCC(=O)O)C(=O)N[C@@H]([C@@H](C)O)C(=O)N4)NC(=O)CNC(=O)[C@@H]1CCCN1C(=O)[C@H]([C@@H](C)O)NC(=O)[C@H](CC(N)=O)NC3=O)C(=O)N[C@@H](CO)C(=O)N[C@@H](Cc1c[nH]c3ccccc13)C(=O)N1CCC[C@H]1C(=O)N[C@@H](C(C)C)C(=O)N2 [Kalata T20K] (cyclo(CGETCVGGTCNTPGCKCSWPVCTRNGLPV); disulfide 1-15, 5-17, 10-22 (inferred); ring closure inferred)
- cell division / proliferation of activated PBMC (in words) [1]: show anti-proliferative capacity
- level of IL-2 mRNA [2]: clearly decreases the level of IL-2 mRNA
- clinical EAE score / symptoms ([3]; T20K 200 μg/100 μL/mouse i.p. on day -7, 0 or 7, vs naive group): delayed and minor symptoms of EAE
- prophylactic effect on clinical EAE score ([3]; mice treated seven days before EAE induction, Dunnett's test): demonstrate significantly the prophylactic effect
- NFATc1 signal in human T-cells (NFATc1 in human T-cells): reduced signal of NFATc1
- NFATc1 signal in mouse splenic T-cells [4]: reduced NFATc1 signal
